Test results published in patent US20220048944A1, “FUNC[…] AS ANTIVIRAL AGENTS” (Enanta Pharmaceuticals, Inc., priority 2020, published 2022).

Target: SARS-CoV-2 3CL-protease (Severe acute respiratory syndrome coronavirus 2, UniProt P0DTD1)
Assay: SARS-CoV-2 3C-like (3CL) protease fluorescence assay (FRET)
Format: biochemical
Details: recombinant SARS-CoV-2 3CL-protease 10 nM, TAMRA-[…]-Dabcyl-OH substrate, 30 min preincubation at RT, run in duplicate
Description: SARS-CoV-2 3C-like (3CL) protease fluorescence assay (FRET): Recombinant SARS-CoV-2 3CL-protease was expressed and purified. […] Black, low volume, round-bottom, 384 well microplates were used. In a typical assay, 0.85 μL of test compound was dissolved in DMSO then incubated with SARS-CoV-2 3CL-protease (10 nM) in 10 μL assay buffer (50 mM HEPES [pH 7.5], 1 mM DTT, 0.01% BSA, 0.01% Triton-X 100) for 30 min at RT. Next, 10 μL of 3CL-protease substrate (40 μM) in assay buffer was added and the assays were monitored continuously for 1 h in an Envision multimode plate reader operating in fluorescence kinetics mode with excitation at 540 nm and emission at 580 nm at RT. No compound (DMSO only) and no enzyme controls were routinely included in each plate. All experiments were run in duplicate.
Data were fitted to normalized activity (variable slope) versus concentration fit in GraphPad Prism 7 to determine IC50.

| Compound | IC50 |
| --- | --- |
| COc1cccc2[nH]c(C(=O)N[C@@H](CC(F)(F)F)C(=O)N[C@H](C#N)C[C@@H]3CCNC3=O)cc12 [Example 25, N—((S)-1-(((S)-1-cyano-2-((S)-2-oxopyrrolidin-3-yl)ethyl)amino)-4,4,4-trifluoro-1-oxobutan-2-yl)-4-methoxy-1H-indole-2-carboxamide] | 100 to 1000 nM |
| COc1cccc2[nH]c(C(=O)N[C@@H](CC3CCCC3)C(=O)N[C@H](C#N)C[C@@H]3CCNC3=O)cc12 [Example 10, N—((S)-1-(((S)-1-cyano-2-((S)-2-oxopyrrolidin-3-yl)ethyl)amino)-3-cyclopentyl-1-oxopropan-2-yl)-4-methoxy-1H-indole-2-carboxamide] | 100 to 1000 nM |
| CC(C)C[C@H](NC(=O)c1cc2ccccc2o1)C(=O)N[C@H](C#N)C[C@@H]1CCNC1=O [Example 13, N—((S)-1-(((S)-1-cyano-2-((S)-2-oxopyrrolidin-3-yl)ethyl)amino)-4-methyl-1-oxopentan-2-yl)benzofuran-2-carboxamide] | > 1000 nM |
| COc1cccc2[nH]c(C(=O)N[C@H](C(=O)N[C@H](C#N)C[C@@H]3CCNC3=O)c3ccccc3)cc12 [Example 5, N—((S)-2-(((S)-1-cyano-2-((S)-2-oxopyrrolidin-3-yl)ethyl)amino)-2-oxo-1-phenylethyl)-4-methoxy-1H-indole-2-carboxamide] | > 1000 nM |
| N#C[C@H](C[C@@H]1CCNC1=O)NC(=O)[C@H](CC1CCCCC1)NC(=O)c1cc2ccccc2o1 [Example 22, N—((S)-1-(((S)-1-cyano-2-((S)-2-oxopyrrolidin-3-yl)ethyl)amino)-3-cyclohexyl-1-oxopropan-2-yl)benzofuran-2-carboxamide] | > 1000 nM |
| COc1cccc2[nH]c(C(=O)N[C@@H](Cc3ccccc3)C(=O)N[C@H](C#N)C[C@@H]3CCNC3=O)cc12 [Example 3, N—((S)-1-(((S)-1-cyano-2-((S)-2-oxopyrrolidin-3-yl)ethyl)amino)-1-oxo-3-phenylpropan-2-yl)-4-methoxy-1H-indole-2-carboxamide] | 100 to 1000 nM |
| COc1cccc2[nH]c(C(=O)N[C@H](C(=O)N[C@H](C#N)C[C@@H]3CCNC3=O)C(C)C)cc12 [Example 7, N—((S)-1-(((S)-1-cyano-2-((S)-2-oxopyrrolidin-3-yl)ethyl)amino)-3-methyl-1-oxobutan-2-yl)-4-methoxy-1H-indole-2-carboxamide] | > 1000 nM |
| COc1cccc2[nH]c(C(=O)N[C@@H](CCSC)C(=O)N[C@H](C#N)C[C@@H]3CCNC3=O)cc12 [Example 12, N—((S)-1-(((S)-1-cyano-2-((S)-2-oxopyrrolidin-3-yl)ethyl)amino)-4-(methylthio)-1-oxobutan-2-yl)-4-methoxy-1H-indole-2-carboxamide] | 100 to 1000 nM |
| COc1cccc2[nH]c(C(=O)N[C@H](C(=O)N[C@H](C#N)C[C@@H]3CCNC3=O)C3CCCCC3)cc12 [Example 6, N—((S)-2-(((S)-1-cyano-2-((S)-2-oxopyrrolidin-3-yl)ethyl)amino)-1-cyclohexyl-2-oxoethyl)-4-methoxy-1H-indole-2-carboxamide] | > 1000 nM |
| COc1cccc2[nH]c(C(=O)N[C@@H](CCc3ccccc3)C(=O)N[C@H](C#N)C[C@@H]3CCNC3=O)cc12 [Example 8, N—((S)-1-(((S)-1-cyano-2-((S)-2-oxopyrrolidin-3-yl)ethyl)amino)-1-oxo-4-phenylbutan-2-yl)-4-methoxy-1H-indole-2-carboxamide] | 100 to 1000 nM |
| COc1cccc2[nH]c(C(=O)N[C@@H](CC(C)C)C(=O)N[C@H](C#N)C[C@@H]3CCCNC3=O)cc12 [Example 16, N—((S)-1-(((S)-1-cyano-2-((S)-2-oxopiperidin-3-yl)ethyl)amino)-4-methyl-1-oxopentan-2-yl)-4-methoxy-1H-indole-2-carboxamide] | < 100 nM |
| COc1cccc2[nH]c(C(=O)N[C@@H](CSC)C(=O)N[C@H](C#N)C[C@@H]3CCNC3=O)cc12 [Example 24, N—((R)-1-(((S)-1-cyano-2-((S)-2-oxopyrrolidin-3-yl)ethyl)amino)-3-(methylthio)-1-oxopropan-2-yl)-4-methoxy-1H-indole-2-carboxamide] | 100 to 1000 nM |
| COc1cccc2[nH]c(C(=O)N[C@H](C(=O)N[C@H](C#N)C[C@@H]3CCNC3=O)C(C)(C)C)cc12 [Example 19, N—((S)-1-(((S)-1-cyano-2-((S)-2-oxopyrrolidin-3-yl)ethyl)amino)-3,3-dimethyl-1-oxobutan-2-yl)-4-methoxy-1H-indole-2-carboxamide] | > 1000 nM |
| CC(C)C[C@H](NC(=O)c1cc2ccccc2[nH]1)C(=O)N[C@H](C#N)C[C@@H]1CCNC1=O [Example 2, N—((S)-1-(((S)-1-cyano-2-((S)-2-oxopyrrolidin-3-yl)ethyl)amino)-4-methyl-1-oxopentan-2-yl)-1H-indole-2-carboxamide] | 100 to 1000 nM |
| COc1cccc2[nH]c(C(=O)N[C@@H](CC3CCCCC3)C(=O)N[C@H](C#N)C[C@@H]3CCCNC3=O)cc12 [Example 14, N—((S)-1-(((S)-1-cyano-2-((S)-2-oxopiperidin-3-yl)ethyl)amino)-3-cyclohexyl-1-oxopropan-2-yl)-4-methoxy-1H-indole-2-carboxamide] | < 100 nM |
| COc1cccc2[nH]c(C(=O)N[C@@H](Cc3ccccc3)C(=O)N[C@H](C#N)C[C@@H]3CCCNC3=O)cc12 [Example 18, N—((S)-1-(((S)-1-cyano-2-((S)-2-oxopiperidin-3-yl)ethyl)amino)-1-oxo-3-phenylpropan-2-yl)-4-methoxy-1_H-indole-2-carboxamide] | 100 to 1000 nM |
| N#C[C@H](C[C@@H]1CCCNC1=O)NC(=O)[C@H](CC1CCCCC1)NC(=O)c1cc2ccccc2o1 [Example 15, N—((S)-1-(((S)-1-cyano-2-((S)-2-oxopiperidin-3-yl)ethyl)amino)-3-cyclohexyl-1-oxopropan-2-yl)benzofuran-2-carboxamide] | 100 to 1000 nM |
| COc1cccc2[nH]c(C(=O)N[C@@H](CCCc3ccccc3)C(=O)N[C@H](C#N)C[C@@H]3CCNC3=O)cc12 [Example 11, N—((S)-1-(((S)-1-cyano-2-((S)-2-oxopyrrolidin-3-yl)ethyl)amino)-1-oxo-5-phenylpentan-2-yl)-4-methoxy-1H-indole-2-carboxamide] | > 1000 nM |
